Laboratory results published in patent US20230381142A1, “ANTILEISHMANIAL COMPOUNDS, COMPOSITIONS AND USE THEREOF” (TRUSTEES OF BOSTON UNIVERSITY, priority 2022, published 2023).
Converted amounts (≈) assume the structure as drawn.

Tests used:
human serum albumin = human serum albumin (Homo sapiens, UniProt P02768); assay: Human serum albumin (HSA) binding, chromatographic; type: in vitro ADME
Protocol: The percentage of compound bound to human serum albumin was measured using a chromatographic method as described. Briefly, each compound was assayed on an immobilized HSA column and gradient retention times measured, with chromatographic peak detection by UV. Each retention time was then converted to a % HSA bound value using a calibration set of compounds with a known % HSA binding.

[1] = Property forecast index (PFI = ChromLogD7.4 + aromatic rings); type: physicochemical
Protocol: At the outset of the project, compound 1 was evaluated against GSK's established criteria for antileishmanial compound advancement (Table 2). Some of these assessments were performed on racemic 1, while chiral separation was also pursued of the 1 racemate to determine the active enantiomer. […] Based on this promising profile, it progressed into medicinal chemistry optimization to better understand structure-activity relationships (SAR) toward improved potency, as well as structure-property relationships (SPR) with an eye toward reducing PFI and plasma protein binding.

HepG2 cells = assay: HepG2 cytotoxicity; type: cell-based; conditions: Homo sapiens; toxicity against HepG2 cells
Protocol: Given the literature precedents described above and the apparent narrow tolerance for R^3 substitutions observed in the primary screen compounds, a thorough and methodical assessment was undertaken of tolerated groups at the three points of diversity (R^1/R^2/R^3) for the core. At this stage of the project, all analogues were assessed using a battery of assays performed in-house at GlaxoSmithKline. For antileishmanial activity, GSK's inMac assay was utilized. This assay provides two readouts of compound potency: average number of intracellular amastigotes per infected cell (AMMAC) EC50, percentage of infected cells per well (INFCELL) EC50, as well as a toxicity output derived from the number of host cells (MAC EC50). In addition, compounds were assessed for toxicity against HepG2 cells (HEPG2 EC50). Here, AMMAC EC50 values were focused on for relative potency assessments. […] It should be noted that for all compounds assessed in this project, the measured toxicity against THP-1 macrophages either equaled or exceeded that of HepG2 hepatocytes, therefore the MAC SI is used here as the more conservative estimate of therapeutic index.

host THP-1 macrophages = assay: GSK inMac assay, host cell toxicity readout (LD MAC); type: cell-based, human; conditions: Homo sapiens, THP-1, cytotoxicity against host THP-1 macrophages
Procedure, shortened: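 MAC EC50 reflects THP-1 host cell counts, measured within GSK's inMac L. donovani infection assay that also scores intracellular amastigotes and infected-cell percentage.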

[2] = Artificial membrane permeability (AMP); type: in vitro ADME; conditions: PAMPA, pH 7.4
Protocol: Passive permeability of compounds via rate of permeation through an artificial phospholipid membrane at pH 7.4 was measured in a high-throughput format, in duplicate. A solution of 1.8% phosphatidylcholine in 1% decane was added to a 96-well Millicell filter plate along with 250 μL of 50 mM phosphate buffer, pH 7.4 on the donor side, and 100 μL of the same buffer solution on the receiver side. The assay plate was shaken for 45 minutes before adding test compounds. Test compounds were then added to the filter plate and then incubated at room temperature with shaking for three hours. The donor and receiver solutions were next transferred to a 384-well plate for analysis by LC/MS.

[3] = Kinetic aqueous solubility by CLND; type: physicochemical; conditions: aqueous medium (not further specified), kinetic from dmso stock, high-throughput CLND
Protocol: Solubility of compounds using ChemiLuminescent Nitrogen Detection (CLND) was measured as described. Solubility of compounds using Charged Aerosol Detection (CAD) was measured as described. Solubility of solid compounds in Fasted Simulated Intestinal Fluid (FaSSIF) was measured as described.

[4] = test system: L. donovani intracellular amastigotes infecting THP-1 macrophages; assay: GSK intramacrophage L. donovani assay (LD AMMAC, inMac; Assay Conditions C); type: cell-based; conditions: Leishmania donovani; growth inhibition of L. donovani intracellular amastigotes infecting THP-1 macrophages; read-out: LD AMMAC EC50
Procedure, shortened: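 EC50 values come from counting amastigotes per infected THP-1 macrophage (AMMAC). Parallel read-outs give percentage of infected cells per well (INFCELL) and a macrophage-number toxicity EC50 (MAC).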

human serum albumin, sequence (P02768 25-609): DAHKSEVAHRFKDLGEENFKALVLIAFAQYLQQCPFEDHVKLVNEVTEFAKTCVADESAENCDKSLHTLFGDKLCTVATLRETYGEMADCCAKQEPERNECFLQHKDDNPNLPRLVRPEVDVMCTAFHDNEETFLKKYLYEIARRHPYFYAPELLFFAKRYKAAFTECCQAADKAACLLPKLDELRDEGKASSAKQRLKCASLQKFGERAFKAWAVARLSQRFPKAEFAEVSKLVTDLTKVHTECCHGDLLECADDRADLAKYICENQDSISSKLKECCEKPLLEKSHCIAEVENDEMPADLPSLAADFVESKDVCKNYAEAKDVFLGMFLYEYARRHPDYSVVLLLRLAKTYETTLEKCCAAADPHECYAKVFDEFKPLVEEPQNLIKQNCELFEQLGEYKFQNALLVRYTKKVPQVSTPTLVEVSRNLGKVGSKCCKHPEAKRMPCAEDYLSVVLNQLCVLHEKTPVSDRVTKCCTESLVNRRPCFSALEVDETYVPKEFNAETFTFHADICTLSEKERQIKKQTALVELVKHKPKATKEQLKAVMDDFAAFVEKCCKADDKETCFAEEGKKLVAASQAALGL

Compound | HSA Binding (human serum albumin) | PFI [1] | Papp at 3 h [2] | solubility [3] | EC50 [4] | EC50 (HepG2 cells) | EC50 (host THP-1 macrophages)
COc1ccc(N2C(=O)c3[nH]nc(CC(C)C)c3C2C2CCCC2)cc1 (stereo not shown) [Compound 53] | 96.3% | 8.1 | 590 nm/s | 119 µM (≈ 42.1 µg/mL) | 12.6 µM | > 100 µM | 20 µM
COc1ccc(N2C(=O)c3[nH]nc(CC(C)C)c3C2c2ccccc2F)cc1 (stereo not shown) [Compound 54] | 97.3% | 8.6 | 230 nm/s | 75 µM (≈ 28.5 µg/mL) | 3.2 µM | 31.6 µM | 31.6 µM
COc1ccc(N2C(=O)c3[nH]nc(CC(C)C)c3C2c2ccccc2Br)cc1 (stereo not shown) [Compound 56] | 97.1% | 9.2 | 300 nm/s | 12 µM (≈ 5.28 µg/mL) | 0.5 µM | 39.8 µM | 25.1 µM
COc1ccc(N2C(=O)c3[nH]nc(CC(C)C)c3C2c2ccccc2OC)cc1 (stereo not shown) [Compound 57, 3-isobutyl-4-(2-methoxyphenyl)-5-(4-methoxyphenyl)-4,5-dihydropyrrolo[3,4-c]pyrazol-6(1H)-one] | 95.7% | 8.6 | 350 nm/s | 57 µM (≈ 22.3 µg/mL) | 0.5 µM | 6.3 µM | 25.1 µM
COc1ccc(N2C(=O)c3[nH]nc(CC(C)C)c3C2c2cccc(F)c2)cc1 (stereo not shown) [Compound 58] | 96.9% | 8.3 | 370 nm/s | 91 µM (≈ 34.5 µg/mL) | 5 µM | 50.1 µM | 12.6 µM
COc1ccc(N2C(=O)c3[nH]nc(CC(C)C)c3C2c2cccc(Cl)c2)cc1 (stereo not shown) [Compound 59] | 96.8% | 9.0 | 280 nm/s | 19 µM (≈ 7.52 µg/mL) | 7.9 µM | 39.8 µM | 39.8 µM
COc1ccc(N2C(=O)c3[nH]nc(CC(C)C)c3C2c2cccc(Br)c2)cc1 (stereo not shown) [Compound 60] | 97% | 9.1 | 370 nm/s | 10 µM (≈ 4.4 µg/mL) | 7.9 µM | 39.8 µM | 25.1 µM
COc1ccc(N2C(=O)c3[nH]nc(CC(C)C)c3C2c2cccc(OC)c2)cc1 (stereo not shown) [Compound 61] | 95% | 8.4 | 290 nm/s | 63 µM (≈ 24.7 µg/mL) | 4 µM | 63.1 µM | 20 µM

Now from value to molecule, other results behind:

HSA Binding (human serum albumin) | PFI [1] | Papp at 3 h [2] | solubility [3] | EC50 [4] | Compound | EC50 (HepG2 cells) | EC50 (host THP-1 macrophages)
97.8% | 8.9 | 220 nm/s | 20 µM (≈ 8.59 µg/mL) | 6.3 µM | COc1ccc(N2C(=O)c3[nH]nc(CC(C)C)c3C2c2cccc(C(F)(F)F)c2)cc1 (stereo not shown) [Compound 62] | 50.1 µM | 15.8 µM
96.1% | 8.8 | 140 nm/s | 52 µM (≈ 20.7 µg/mL) | 2 µM | COc1ccc(N2C(=O)c3[nH]nc(CC(C)C)c3C2c2ccc(F)cc2F)cc1 (stereo not shown) [Compound 63] | 63.1 µM | 25.1 µM
97.2% | 8.8 | 110 nm/s | 43 µM (≈ 16.9 µg/mL) | 0.5 µM | COc1ccc(N2C(=O)c3[nH]nc(CC(C)C)c3C2c2ccc(F)cc2C)cc1 (stereo not shown) [Compound 64, 4-(4-fluoro-2-methylphenyl)-3-isobutyl-5-(4-methoxyphenyl)-4,5-dihydropyrrolo[3,4-c]pyrazol-6(1H)-one] | 50.1 µM | 25.1 µM
96.2% | 8.7 | 140 nm/s | 44 µM (≈ 17.5 µg/mL) | 5 µM | COc1ccc(N2C(=O)c3[nH]nc(CC(C)C)c3C2c2ccc(F)c(F)c2)cc1 (stereo not shown) [Compound 65, 4-(3,4-difluorophenyl)-3-isobutyl-5-(4-methoxyphenyl)-4,5-dihydropyrrolo[3,4-c]pyrazol-6(1H)-one] | 50.1 µM | 25.1 µM
97.1% | 9.1 | 330 nm/s | 6 µM (≈ 2.58 µg/mL) | 1 µM | COc1ccc(N2C(=O)c3[nH]nc(CC(C)C)c3C2c2c(Cl)cccc2Cl)cc1 (stereo not shown) [Compound 66] | 6.3 µM | 2.5 µM
